In article PMC9229894, “In Silico, In Vitro, and Pharmacokinetic Studies of UBMC-4, a Potential Novel Compound for Treating against Trypanosoma cruzi” (Pathogens, 2022):
Several values for one entry are separate records, joined by “and”; a condition that tells them apart may be missing. Equal entries are not always repeated. Entries after “also recorded” stand apart in the source; their conditions may differ.

Assays:
[1] = Cytotoxicity, MTT method, CaCo2; format: cell-based; conditions: human, Caco-2, read-out: LC50 median lethal concentration CaCo2
Procedure: Cytotoxicity of UBMC-4 was tested in HepG2, CaCo2, and huMDM cell lines according to the effect on cell growth determined by the MTT microenzimatic method, as described by others. Briefly, 2.0 × 10^4 U-937 and huMDM or 2.5 × 10^4 HepG2 and CaCo2 cells were dispensed in 200 µL into each well of a 96-well tissue culture plate containing the corresponding culture medium. Then, 100 µL/well of each compound at a concentration of […] were added and plates were incubated at 37 °C, 5% CO2. After 72 h of incubation, 20 μL of MTT (Sigma-Aldrich, St Louis, MO, USA) were added to each well and plates were incubated for 3 h at 37 °C, 5% CO2. […] The concentration of formazan was determined at 570 nm in a spectrophotometer (Varioskan Flash Multimode Reader, Thermo Scientific, Waltham, MA, USA). […] Cytotoxicity was determined according to the percentages of viability and cell growth inhibition obtained for each compound, bz, doxorubicin, or medium alone. Non-specific absorbance was corrected by subtracting the OD of the blank (culture medium). Percentages of mortality were calculated using equation, as follows: % mortality = 100 − [(O.D. of treated cells)/(O.D. of non-treated cells)] × 100. The half maximal effective concentration (EC50) was calculated by the linear regression model Probit using Graphpad Prism software.

[2] = tested on: T. cruzi trypomastigotes; assay: Flow cytometry of apoptosis-like markers in trypomastigotes; format: cell-based, Trypanosoma cruzi; conditions: 10 µM; for DNA damage (hypodiploidy), % of trypomastigote population: time not given
Procedure: Apoptosis-like markers were analyzed by triple staining using 3,3′-dihexyloxacarbocyanine (DiOC6), propidium iodide (PI), and Hoechst from Thermo Fisher Scientific to determine the change of mitochondrial membrane potential (ΔΨm), cell membrane damage, and impairment of cell cycle, respectively. All readings were performed on a BD FACSCanto II 4/2/2 Sys IVD flow cytometer, and data obtained were analyzed using the FlowJo7.6.2 software. Differences between treatments were determined by a two-way ANOVA for multiple comparisons with 95% significance using GraphPad Prism 8. In all cases, 20 µL of parasites (5 × 10^6/mL) were stained per treatment with 300 µL of Hanks’ balanced saline solution (HBSS) and 10 µL of the staining mix containing […], 0.5 µL of 70 nM DiOC6, and 0.5 µL of 10 mg/mL Hoechst. Subsequently, parasites were incubated at room temperature for 15 min until reading.
The same markers mentioned above were used for T. cruzi trypomastigotes. A total of 1 × 10^6 trypomastigotes were centrifuged at 1800 RCF for 5 min to remove the culture medium. Parasites were cultured at […] in PBS or 10% FBS-supplemented DMEM with or without 10 µM UBMC-4, 10 µM chloroquine, and 10 µM UBMC-4/chloroquine for 2 h and 5 h. All experiments were compared to a culture setup using bz as control compound. Three biological replicates and three experimental replicates were applied to data collected at each time point for experimental conduction of every portion of the study. In all cases, ANOVA was applied for multiple comparisons after determining that data were normal.

[3] = In vivo pharmacokinetic analysis of UBMC-4 in mice (HPLC plasma, two-compartment model); parameters: species or system Balb/c Mus musculus
Procedure: A total of 30 mice (15 males and 15 females) was randomly selected and divided into two groups: one group received a 200 µL oral single dose of UBMC-4 at a concentration of 60 mM (equivalent to a 200 mg/kg dose), and a control group receiving 200 µL of vehicle (Kolliphor and water without UBMC-4) via oral route. Considering that the average weight of the mice was 25 g, the total amount of UBMC-4 administered was 5 mg. The compound was only administered orally, it was not used intravenously since one of the primary objectives was to evaluate its gastrointestinal absorption. […] In this way, we wanted to find the highest potential plasma concentrations before inducing toxicity. Blood samples were collected in EDTA tubes via intracardiac puncture performed under general anesthesia in both groups at sampling time points as follows: 0 h, 1 h, 2 h, 3 h, 5 h, 6 h, 8 h, and 24 h. Samples were then centrifuged at 1800 rpm at 4 °C for 10 min to collect plasma. For each sampling time point, 100 µL of mouse plasma were collected and 200 µL of acetone were added. This mixture was vortexed for 30 s and centrifuged at 10,000 rpm at 4 °C for 20 min. Supernatants were poured into vials for HPLC analysis following the method described below.
The amount of UBMC-4 in plasma samples was quantified by a HPLC method using a Hitachi Chromaster HPLC System with a Knauer C18 Column as follows: λ: 300 nm; temperature: 40 °C; run time: 13 min at a flow rate of 1.0 mL/min. A gradient of acetonitrile:water:methanol in a 30:40:30 ratio was used as mobile phase from baseline to minute 6, a 20:0:80 ratio from minute 7 to minute 10, and again a 30:40:30 ratio from minute 11. Linearity of the method was calculated for the 0.5 µg/mL to 20 µg/mL concentration range, with a r^2 (correlation coefficient) of 0.969 for the relationship between the area under the curve and UBMC-4 absorption at 300 nm.
The ADAPT 5 software was used to determine the most suitable model for the UBMC-4 plasma concentration profile. The maximum likelihood estimation method was used for modeling. After conducting trials where various models were used, the best one was chosen based on the -Log-Likelihood (-LL) and Akaike information criterion (AIC) values. Consequently, by comparing models, the one producing lower values amongst these two parameters would be the one that best fit the plasma concentration data and the most useful for pharmacokinetic studies. Moreover, based on the R-square value (r^2), we assessed the correlation between the values predicted by the model and those observed in UBMC-4 plasma concentration. The selected model was therefore used to elaborate simulations using different administration regimens and thus predicting what would happen with UBMC-4 concentration levels upon administration of repeated dosage. This simulation was also performed using ADAPT 5 [36, 66, 67]

[4] = two-compartment model, 200 mg/kg oral

Q: Which CC50 at 72 h [1] does the source give for Oc1ccc(-c2nc(-c3ccc4sc5ccccc5c4c3)c(-c3ccccc3)[nH]2)cc1 [UBMC-4, 4-(4-dibenzo-[b,d]-thien-2-yl-5-phenyl-1H-imidazol-2-yl)phenol] here?
A: Its CC50 at 72 h is over 40 µM.

Q: And the “mitochondrial membrane potential change” value ([2]; normal nutritional conditions, 2 h)?
A: Its value is “remained intact (no hyper- or depolarization)”.

Q: What about the “cell membrane permeability, % of trypomastigote population” value ([2]; normal nutritional conditions, 5 h) of the same compound?
A: The value was 2.2%.

Q: And the “DNA damage (hypodiploidy), % of trypomastigote population” value ([2]; normal nutritional conditions)?
A: Its value is 23%.

Q: And the “Ψm depolarization, % of trypomastigotes” value ([2]; nutritional stress, 2 h)?
A: The value was 32%.

Q: What about the “cell membrane permeability, % of trypomastigote population” value ([2]; nutritional stress, 5 h) of the same compound?
A: Its value is 36%.

Q: What about the “Ψm depolarization, % of trypomastigotes” value ([2]; nutritional stress, 5 h) of the same compound?
A: Its value is 40%.

Q: What about the “DNA damage (hypodiploidy), % of trypomastigote population” value ([2]; nutritional stress) of the same compound?
A: Its value is 54%.

Q: And the “time of highest plasma concentration” value ([3]; 200 mg/kg oral single dose)?
A: Its value is 3 h.

Q: And the oral absorption ([3]; 200 mg/kg oral, Kolliphor RH40 formulation, 200 mg/kg)?
A: Its oral absorption is “well absorbed; also recorded: absorbed orally”.

Q: And the concentration at 0 h ([3]; both sexes, Balb/c, mouse, plasma, 200 mg/kg oral single dose, 0 h)?
A: Its concentration at 0 h is 0 ng/mL.

Q: And the concentration at 1 h ([3]; both sexes, Balb/c, mouse, plasma, 200 mg/kg oral single dose, 1 h)?
A: The concentration at 1 h was 2800 ng/mL and 6.69 µM.

Q: And the concentration at 2 h ([3]; both sexes, Balb/c, mouse, plasma, 200 mg/kg oral single dose, 2 h)?
A: The concentration at 2 h was 3200 ng/mL.

Q: What about the concentration at 3 h ([3]; both sexes, Balb/c, mouse, plasma, 200 mg/kg oral single dose, 3 h) of the same compound?
A: Its concentration at 3 h is 4200 ng/mL.

Q: What about the concentration at 5 h ([3]; both sexes, Balb/c, mouse, plasma, 200 mg/kg oral single dose, 5 h) of the same compound?
A: Its concentration at 5 h is 3800 ng/mL.

Q: What about the concentration at 6 h ([3]; both sexes, Balb/c, mouse, plasma, 200 mg/kg oral single dose, 6 h) of the same compound?
A: Its concentration at 6 h is 3700 ng/mL.

Q: And the concentration at 8 h ([3]; both sexes, Balb/c, mouse, plasma, 200 mg/kg oral single dose, 8 h)?
A: The concentration at 8 h was 3600 ng/mL.

Q: What about the concentration at 24 h ([3]; both sexes, Balb/c, mouse, plasma, 200 mg/kg oral single dose, 24 h) of the same compound?
A: The concentration at 24 h was 2400 ng/mL and 5.74 µM.

Q: What about the Cmax ([3]; both sexes, Balb/c, mouse, plasma, po, 200 mg/kg, 200 mg/kg oral single dose, read-out: highest plasma concentration (Cmax)) of the same compound?
A: The Cmax was 4200 ng/mL and 10 µM.

Q: What about the half-life ([3]; both sexes, Balb/c, mouse, plasma, two-compartment model, 200 mg/kg oral, read-out: estimated half-life (t1/2) (converted)) of the same compound?
A: The half-life was 22.4 h.

Q: And the CLd/F intercompartmental clearance [3, 4]?
A: The CLd/F intercompartmental clearance was 0.2514 L/h.

Q: What about the CLt/F total clearance [3, 4] of the same compound?
A: Its CLt/F total clearance is 0.0357 L/h.

Q: What about the Ka absorption constant [3, 4] of the same compound?
A: The Ka absorption constant was 0.6213 h⁻¹.

Q: What about the Vc/F central volume [3, 4] of the same compound?
A: The Vc/F central volume was 0.6930 L.

Q: What about the Vp/F peripheral volume [3, 4] of the same compound?
A: Its Vp/F peripheral volume is 0.4360 L.
